What follows are compounds tested against TNFα (Homo sapiens (Human), UniProt P01375) (assay: TNF induced HEK-Blue assay). Details: TNFα 0.5 ng/ml; HEK-Blue-CD40L cells, NF-kB-driven secreted alkaline phosphatase reporter; 18 h.
Format: cell-based
Method: TNF or CD40L-Induced HEK-Blue Assay
Test compounds serially diluted in DMSO were plated in an assay plate (LABCYTE, Cat. # LP-0200) at final concentrations ranging from 0.004 μM to 25 μM. TNFα (final concentration 0.5 ng/ml) or CD40L (final concentration 30 ng/ml) in assay buffer [DMEM, 4.5 g/l glucose (Gibco, Cat. 21063-029), 10% FBS (Sigma, F4135), 1% Penicillin-Streptomycin (Gibco, Cat. 15140-122), 1% Anti-Anti (Gibco, Cat. 15240-112) and 2 mM L-glutamine (Gibco, Cat. 25030-081)] was then added to the assay plate. After a 30 minute pre-incubation at 37° C. and 5% CO2, HEK-Blue™-CD40L cells (INVIVOGEN, Cat. Code hkb-cd40) containing a NF-kB-driven secreted alkaline phosphatase reporter gene were seeded into the assay plate at a density of 20,000 cells per well. This plate was then incubated for 18 h at 37° C. and 5% CO2. Secreted alkaline phosphatase expression was measured using QUANTI-Blue™ (INVIVOGEN, Cat. Code rep-qb1) according to manufacturer's specifications and the assay plate was read on a PerkinElmer Envision at 620 nm.
Inhibition data for the test compound over a range of concentrations was plotted as percentage inhibition of the test compound (100%=maximum inhibition). IC50 values were determined after correcting for background [(sample read−mean of low control)/(mean of high control−mean of low control)] where by the low control is DMSO without stimulation and high control is DMSO with stimulation. The IC50 is defined as the concentration of test compound which produces 50% inhibition and was quantified using the 4 parameter logistic equation to fit the data.

TNFα, sequence (P01375 77-233): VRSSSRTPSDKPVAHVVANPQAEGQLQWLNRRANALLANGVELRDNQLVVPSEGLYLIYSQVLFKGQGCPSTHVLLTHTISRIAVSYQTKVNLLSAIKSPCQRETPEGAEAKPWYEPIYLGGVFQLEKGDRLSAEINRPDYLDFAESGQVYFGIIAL

Structure (SMILES)	IC50
O=C(O)CN1CCN(c2ncc(-c3cc4c(cc3F)nc3n4[C@@H](c4ccccc4OC(F)F)[C@@H]4C[C@H]34)cn2)CC1 [Example 33, 2-(4-(5-((1aS,8R,8aR)-8-(2-(difluoromethoxy)phenyl)-4-fluoro-1,1a,8,8a-tetrahydrobenzo[d]cyclopropa[3,4]pyrrolo[1,2-a]imidazol-5-yl)pyrimidin-2-yl)piperazin-1-yl)acetic acid]	< 1 µM
CC(C)(O)c1ncc(-c2cc3c(cc2F)nc2n3[C@@H](c3ccccc3OCc3ccncc3)[C@@H]3C[C@H]23)cn1 [Example 34, 2-(5-((1aS,8R,8aR)-4-fluoro-8-(2-(pyridin-4-ylmethoxy)phenyl)-1,1a,8,8a-tetrahydrobenzo[d]cyclopropa[3,4]pyrrolo[1,2-a]imidazol-5-yl)pyrimidin-2-yl)propan-2-ol]	1 to 10 µM
CC(C)(O)c1ncc(-c2cc3c(cc2F)nc2n3[C@H](c3ccccc3OCc3ccncc3)[C@@H]3C[C@H]23)cn1 [Example 35, 2-(5-((1aS,8S,8aR)-4-fluoro-8-(2-(pyridin-4-ylmethoxy)phenyl)-1,1a,8,8a-tetrahydrobenzo[d]cyclopropa[3,4]pyrrolo[1,2-a]imidazol-5-yl)pyrimidin-2-yl)propan-2-ol]	10 to 25 µM
